Measured values: patent US20230085307A1, “PYRIDAZINONE COMPOUND AND HERBICIDE” (NISSAN CHEMICAL CORPORATION, priority 2019, published 2023)

How the values were obtained:
barnyard grass [1] = assay: Test Example 3: herbicidal effect by foliage application, Wagner pot (Table 18, symbol H); assay type: in vivo, barnyard grass (Echinochloa crus-galli); conditions: 320 g/ha
How it was run: (§1)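 Plants were sown in alluvial soil held under 0.1–0.5 cm standing water and grown 14 days in a greenhouse at 25–30 °C. An emulsifiable formulation, water-diluted to the set dose, was then sprayed onto the foliage, and effects were scored three weeks later using previously defined criteria.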

Chinese sprangletop = assay: Test Example 3: herbicidal effect by foliage application, Wagner pot (Table 18, symbol D); assay type: in vivo, chinese sprangletop (Leptochloa chinensis); conditions: 320 g/ha
How it was run: as §1

rice flat sedge = assay: Test Example 3: herbicidal effect by foliage application, Wagner pot (Table 18, symbol E); assay type: in vivo, rice flat sedge (Cyperus iria); conditions: 320 g/ha
How it was run: as §1

southern crabgrass [2] = assay: Test Example 4: herbicidal effect by soil treatment (Table 19, symbol F); assay type: in vivo, southern crabgrass (Digitaria ciliaris)
How it was run: (§2)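 Emulsion of test compound, water-diluted to predetermined amount, sprayed on soil after sowing (seed depth ~1.5 cm, sterilized diluvial soil). Greenhouse, 25–30° C. Effect graded at three weeks post-spray.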

green foxtail [3] = assay: Test Example 4: herbicidal effect by soil treatment (Table 19, symbol G); assay type: in vivo, green foxtail (Setaria viridis)
How it was run: as §2

barnyard grass [4] = assay: Test Example 4: herbicidal effect by soil treatment (Table 19, symbol H); assay type: in vivo, barnyard grass (Echinochloa crus-galli)
How it was run: as §2

wild oat [5] = assay: Test Example 4: herbicidal effect by soil treatment (Table 19, symbol I); assay type: in vivo, wild oat (Avena fatua)
How it was run: as §2

blackgrass [6] = assay: Test Example 4: herbicidal effect by soil treatment (Table 19, symbol J); assay type: in vivo, blackgrass (Alopecurus myosuroides)
How it was run: as §2

Italian ryegrass [7] = assay: Test Example 4: herbicidal effect by soil treatment (Table 19, symbol K); assay type: in vivo, Italian ryegrass (Lolium multiflorum)
How it was run: as §2

windgrass [8] = assay: Test Example 4: herbicidal effect by soil treatment (Table 19, symbol L); assay type: in vivo, windgrass (Apera spica-venti)
How it was run: as §2

velvetleaf [9] = assay: Test Example 4: herbicidal effect by soil treatment (Table 19, symbol M); assay type: in vivo, velvetleaf (Abutilon theophrasti)
How it was run: as §2

redroot pigweed [10] = assay: Test Example 4: herbicidal effect by soil treatment (Table 19, symbol N); assay type: in vivo, redroot pigweed (Amaranthus retroflexus)
How it was run: as §2

lambsquarters [11] = assay: Test Example 4: herbicidal effect by soil treatment (Table 19, symbol O); assay type: in vivo, lambsquarters (Chenopodium album)
How it was run: as §2

chickweed [12] = assay: Test Example 4: herbicidal effect by soil treatment (Table 19, symbol P); assay type: in vivo, common chickweed (Stellaria media)
How it was run: as §2

false cleavers [13] = assay: Test Example 4: herbicidal effect by soil treatment (Table 19, symbol Q); assay type: in vivo, false cleavers (Galium spurium)
How it was run: as §2

persian speedwell [14] = assay: Test Example 4: herbicidal effect by soil treatment (Table 19, symbol R); assay type: in vivo, Persian speedwell (Veronica persica)
How it was run: as §2

southern crabgrass [15] = assay: Test Example 5: herbicidal effect by foliage application, plastic box (Table 20, symbol F); assay type: in vivo, southern crabgrass (Digitaria ciliaris); conditions: foliage application, 320 g/ha, evaluated three weeks after application
How it was run: (§3)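 Post-emergence foliar test in sterilized diluvial soil. Compound applied as water-diluted emulsion at a predetermined rate to 14-day-old plants; evaluation at three weeks.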

green foxtail [16] = assay: Test Example 5: herbicidal effect by foliage application, plastic box (Table 20, symbol G); assay type: in vivo, green foxtail (Setaria viridis); conditions: foliage application, 320 g/ha, evaluated three weeks after application
How it was run: as §3

barnyard grass [17] = assay: Test Example 5: herbicidal effect by foliage application, plastic box (Table 20, symbol H); assay type: in vivo, barnyard grass (Echinochloa crus-galli); conditions: foliage application, 320 g/ha, evaluated three weeks after application
How it was run: as §3

wild oat [18] = assay: Test Example 5: herbicidal effect by foliage application, plastic box (Table 20, symbol I); assay type: in vivo, wild oat (Avena fatua); conditions: foliage application, 320 g/ha, evaluated three weeks after application
How it was run: as §3

blackgrass [19] = assay: Test Example 5: herbicidal effect by foliage application, plastic box (Table 20, symbol J); assay type: in vivo, blackgrass (Alopecurus myosuroides); conditions: foliage application, 320 g/ha, evaluated three weeks after application
How it was run: as §3

Italian ryegrass [20] = assay: Test Example 5: herbicidal effect by foliage application, plastic box (Table 20, symbol K); assay type: in vivo, Italian ryegrass (Lolium multiflorum); conditions: foliage application, 320 g/ha, evaluated three weeks after application
How it was run: as §3

windgrass [21] = assay: Test Example 5: herbicidal effect by foliage application, plastic box (Table 20, symbol L); assay type: in vivo, windgrass (Apera spica-venti); conditions: foliage application, 320 g/ha, evaluated three weeks after application
How it was run: as §3

velvetleaf [22] = assay: Test Example 5: herbicidal effect by foliage application, plastic box (Table 20, symbol M); assay type: in vivo, velvetleaf (Abutilon theophrasti); conditions: foliage application, 320 g/ha, evaluated three weeks after application
How it was run: as §3

redroot pigweed [23] = assay: Test Example 5: herbicidal effect by foliage application, plastic box (Table 20, symbol N); assay type: in vivo, redroot pigweed (Amaranthus retroflexus); conditions: foliage application, 320 g/ha, evaluated three weeks after application
How it was run: as §3

lambsquarters [24] = assay: Test Example 5: herbicidal effect by foliage application, plastic box (Table 20, symbol O); assay type: in vivo, lambsquarters (Chenopodium album); conditions: foliage application, 320 g/ha, evaluated three weeks after application
How it was run: as §3

chickweed [25] = assay: Test Example 5: herbicidal effect by foliage application, plastic box (Table 20, symbol P); assay type: in vivo, common chickweed (Stellaria media); conditions: foliage application, 320 g/ha, evaluated three weeks after application
How it was run: as §3

false cleavers [26] = assay: Test Example 5: herbicidal effect by foliage application, plastic box (Table 20, symbol Q); assay type: in vivo, false cleavers (Galium spurium); conditions: foliage application, 320 g/ha, evaluated three weeks after application
How it was run: as §3

persian speedwell [27] = assay: Test Example 5: herbicidal effect by foliage application, plastic box (Table 20, symbol R); assay type: in vivo, Persian speedwell (Veronica persica); conditions: foliage application, 320 g/ha, evaluated three weeks after application
How it was run: as §3

[28] = amount of applied herbicide 320 g/ha

Row | Compound | herbicidal effect on H (barnyard grass), rating 0-5 (barnyard grass [1]) | herbicidal effect on D (Chinese sprangletop), rating 0-5 (Chinese sprangletop) | herbicidal effect on E (rice flat sedge), rating 0-5 (rice flat sedge) | herbicidal effect on F: southern crabgrass (southern crabgrass [15]) | herbicidal effect on G: green foxtail (green foxtail [16]) | herbicidal effect on H: barnyard grass (barnyard grass [17]) | herbicidal effect on I: wild oat (wild oat [18]) | herbicidal effect on J: blackgrass (blackgrass [19]) | herbicidal effect on K: Italian ryegrass (Italian ryegrass [20]) | herbicidal effect on L: windgrass (windgrass [21]) | herbicidal effect on M: velvetleaf (velvetleaf [22]) | herbicidal effect on N: redroot pigweed (redroot pigweed [23]) | herbicidal effect on O: lambsquarters (lambsquarters [24]) | herbicidal effect on P: chickweed (chickweed [25]) | herbicidal effect on Q: false cleavers (false cleavers [26]) | herbicidal effect on R: persian speedwell (persian speedwell [27]) | also measured
1 | CCCC(=O)Oc1c(C)nn(C)c(=O)c1-c1c(-c2ccc(F)cc2)sc2ccc(Cl)cc12 [2-098] | 5 (Herbicidal rate of 90% or more (almost completely withered)) | 4 (Herbicidal rate of 70% or more and less than 90%) | 2 (Herbicidal rate of 20% or more and less than 40%) | 5 (Herbicidal rate of 90% or more (almost completely withered)) | 4 (Herbicidal rate of 70% or more and less than 90%) | 4 (Herbicidal rate of 70% or more and less than 90%) | 5 (Herbicidal rate of 90% or more (almost completely withered)) | 4 (Herbicidal rate of 70% or more and less than 90%) | 5 (Herbicidal rate of 90% or more (almost completely withered)) | 5 (Herbicidal rate of 90% or more (almost completely withered)) | 4 (Herbicidal rate of 70% or more and less than 90%) | 5 (Herbicidal rate of 90% or more (almost completely withered)) | 4 (Herbicidal rate of 70% or more and less than 90%) | 5 (Herbicidal rate of 90% or more (almost completely withered)) | 3 (Herbicidal rate of 40% or more and less than 70%) | 5 (Herbicidal rate of 90% or more (almost completely withered)) | herbicidal effect rating, F: southern crabgrass (southern crabgrass [2]; 320 g/ha): 3 (Herbicidal rate of 40% or more and less than 70%); herbicidal effect rating, G: green foxtail (green foxtail [3]; 320 g/ha): 0 (Herbicidal rate of 5% or less (almost no effect)); herbicidal effect rating, H: barnyard grass (barnyard grass [4]; 320 g/ha): 1 (Herbicidal rate of 5% or more and less than 20%); herbicidal effect rating, I: wild oat (wild oat [5]; 320 g/ha): 2 (Herbicidal rate of 20% or more and less than 40%); herbicidal effect rating, J: blackgrass (blackgrass [6]; 320 g/ha): 0 (Herbicidal rate of 5% or less (almost no effect)); herbicidal effect rating, K: Italian ryegrass (Italian ryegrass [7]; 320 g/ha): 5 (Herbicidal rate of 90% or more (almost completely withered)); herbicidal effect rating, L: windgrass (windgrass [8]; 320 g/ha): 3 (Herbicidal rate of 40% or more and less than 70%); herbicidal effect rating, M: velvetleaf (velvetleaf [9]; 320 g/ha): 3 (Herbicidal rate of 40% or more and less than 70%); herbicidal effect rating, N: redroot pigweed (redroot pigweed [10]; 320 g/ha): 4 (Herbicidal rate of 70% or more and less than 90%); herbicidal effect rating, O: lambsquarters (lambsquarters [11]; 320 g/ha): 4 (Herbicidal rate of 70% or more and less than 90%); herbicidal effect rating, P: chickweed (chickweed [12]; 320 g/ha): 4 (Herbicidal rate of 70% or more and less than 90%); herbicidal effect rating, Q: false cleavers (false cleavers [13]; 320 g/ha): 2 (Herbicidal rate of 20% or more and less than 40%); herbicidal effect rating, R: persian speedwell (persian speedwell [14]; 320 g/ha): 4 (Herbicidal rate of 70% or more and less than 90%)
2 | CCOc1ccccc1-c1sc2ccc(Cl)cc2c1-c1c(O)c(C)nn(C)c1=O [2-105] | 4 (Herbicidal rate of 70% or more and less than 90%) | 0 (Herbicidal rate of 5% or less (almost no effect)) | 3 (Herbicidal rate of 40% or more and less than 70%) | 4 (Herbicidal rate of 70% or more and less than 90%) | 0 (Herbicidal rate of 5% or less (almost no effect)) | 0 (Herbicidal rate of 5% or less (almost no effect)) | 1 (Herbicidal rate of 5% or more and less than 20%) | 0 (Herbicidal rate of 5% or less (almost no effect)) | 0 (Herbicidal rate of 5% or less (almost no effect)) | 0 (Herbicidal rate of 5% or less (almost no effect)) | 5 (Herbicidal rate of 90% or more (almost completely withered)) | 5 (Herbicidal rate of 90% or more (almost completely withered)) | 3 (Herbicidal rate of 40% or more and less than 70%) | 5 (Herbicidal rate of 90% or more (almost completely withered)) | 5 (Herbicidal rate of 90% or more (almost completely withered)) | 5 (Herbicidal rate of 90% or more (almost completely withered)) | F: southern crabgrass, herbicidal effect rating (southern crabgrass [2]; [28]): 3 (Herbicidal rate of 40% or more and less than 70%); G: green foxtail, herbicidal effect rating (green foxtail [3]; [28]): 2 (Herbicidal rate of 20% or more and less than 40%); H: barnyard grass, herbicidal effect rating (barnyard grass [4]; [28]): 3 (Herbicidal rate of 40% or more and less than 70%); I: wild oat, herbicidal effect rating (wild oat [5]; [28]): 0 (Herbicidal rate of 5% or less (almost no effect)); J: blackgrass, herbicidal effect rating (blackgrass [6]; [28]): 0 (Herbicidal rate of 5% or less (almost no effect)); K: Italian ryegrass, herbicidal effect rating (Italian ryegrass [7]; [28]): 0 (Herbicidal rate of 5% or less (almost no effect)); L: windgrass, herbicidal effect rating (windgrass [8]; [28]): 0 (Herbicidal rate of 5% or less (almost no effect)); M: velvetleaf, herbicidal effect rating (velvetleaf [9]; [28]): 3 (Herbicidal rate of 40% or more and less than 70%); N: redroot pigweed, herbicidal effect rating (redroot pigweed [10]; [28]): 5 (Herbicidal rate of 90% or more (almost completely withered)); O: lambsquarters, herbicidal effect rating (lambsquarters [11]; [28]): 4 (Herbicidal rate of 70% or more and less than 90%); P: chickweed, herbicidal effect rating (chickweed [12]; [28]): 3 (Herbicidal rate of 40% or more and less than 70%); Q: false cleavers, herbicidal effect rating (false cleavers [13]; [28]): 4 (Herbicidal rate of 70% or more and less than 90%); R: persian speedwell, herbicidal effect rating (persian speedwell [14]; [28]): 3 (Herbicidal rate of 40% or more and less than 70%)
